Measured values from patent US10493043B2, “Pharmaceutical composition for preventing or treating autoimmune diseases comprising cedrol or derivatives thereof, or pharmaceutically acceptable salts thereof” (University of Seoul Industry Cooperation Foundation, priority 2017, dated 2019).

How the values were obtained:
psoriasis induced mice [1] = assay: Hair regrowth in psoriasis induced mice after termination of imiquimod application; format: in vivo, mouse; details: oral 100 mg/kg
Description: (§1) Imiquimod was applied to the psoriasis induced mice which had developed psoriasis for a week in Example <2-1>. The application was stopped 8 days after the application began. The groups CON and IMQ were treated with distilled water, the group C was treated with cedrol, the group CA was treated with cedryl acetate, the group CE was treated with alpha-cedrene alone at the concentration of 100 mg/kg in 200 ? , every day via oral-administration. Day 8 was the day the imiquimod application was stopped, since then the compounds were administered for 1 week once a day, during which photo-recording was performed (FIGS. 13A˜13D).
The psoriasis induced mice orally administered with cedrol, cedryl acetate, and alpha-cedrene of Example <3-1> were observed by the naked eye, and the number of mice showing hair regrowth was counted.

psoriasis induced mice [2] = assay: Delay of psoriasis development in imiquimod-induced mice (ear thickness, keratosis, skin flair, pain, hemorrhage spots, wrinkles); format: in vivo, mouse; details: for cumulative psoriasis area severity index (ear thickness, keratosis, skin flair), in words: oral 100 mg/kg once a day, FIG. 7; for number of mice showing hemorrhage spots / number of mice showing skin wrinkles / number of mice showing skin pain: oral 100 mg/kg
Description: (§2) To investigate the delayed effect of cedrol, cedryl acetate, and alpha-cedrene on the development of psoriasis, total 5 groups of mice were prepared (8 mice/group). First, the hair of the entire back of the 8-week-old male Balb/c mouse whose immune system was weakened was removed by using a hair clipper (Kimlaube Hair pen 325,327, Rikei, Korea). In the middle of the shaved back of the mouse, 2 mg of imiquimod (3M Health Care Limited, England) was applied in the area of 2 cm×1.5 cm and also 1,125 mg of imiquimod was applied on the right ear of the mouse every day once a day to induce psoriasis.
The mice prepared above were divided into the distilled water treated group (IMQ), the cedrol treated group (C), the cedryl acetate treated group (CA), and the alpha-cedrene treated group (CE). At this time, the mice were orally treated with distilled water at the concentration of 200 ? /mouse and cedrol or its derivatives at the concentration of 200 ? /mouse (100 mg/kg). The day when distilled water or the compound administration started was recorded as day 0 and the administration was performed once a day for a week, during which photo-recording was performed every day (FIGS. 2A˜2D). In the meantime, instead of applying imiquimod, 40 mg of vaseline was applied on the back of the control group (CONT) and 22.5 mg of vaseline was applied on the right ear of the control group. And the control group was orally administered with distilled water (200 ? /mouse).
Then, the psoriasis area severity index (PASI) was calculated with the range of 1˜4 to confirm the reduction effect of the compounds on the ear thickness.
Then, the psoriasis area severity index (PASI) was calculated to confirm the reduction effect of the compounds on keratosis. Keratosis is a symptom of psoriasis. The application of IMQ can induce keratosis.
Then, the psoriasis area severity index (PASI) was calculated to confirm the reduction effect of the compounds on skin flair. Skin flair is a symptom of psoriasis. The application of IMQ can induce skin flair.
The psoriasis area severity index obtained in Examples <2-3> and <2-5> was accumulated to compare the psoriasis area severity index for ear thickness, keratosis and skin flair of the mouse groups respectively treated with cedrol, cedryl acetate, and alpha-cedrene via oral-administration.
When the back of the psoriasis induced mice orally administered with cedrol, cedryl acetate, and alpha-cedrene of Example <2-1> was pinched, those mice who sound painfully with strong rejection were counted. Skin pain is a symptom of psoriasis, and when IMQ is applied, skin pain becomes stronger as time goes by.
The psoriasis induced mice orally administered with cedrol, cedryl acetate, and alpha-cedrene of Example <2-1> were observed by the naked eye, and the number of mice showing hemorrhage spots was counted. Hemorrhage spot is a symptom of psoriasis, and when IMQ is applied, the number of skin hemorrhage spots increases as time goes by.
The psoriasis induced mice orally administered with cedrol, cedryl acetate, and alpha-cedrene of Example <2-1> were observed by the naked eye, and the number of mice showing skin wrinkles was counted. Skin wrinkle is a symptom of psoriasis, and when IMQ is applied, skin keratinization increases and accordingly skin wrinkles are formed as time goes by.

human IL-17A expression = assay: IL-17A inhibition assay in IL-17 luciferase-(LUCPorter) stable reporter cell line; details: 10, 100, 1,000 μg/ml
psoriasis induced mice [3] = assay: Therapeutic (recovery) effect in psoriasis induced mice after termination of imiquimod application; format: in vivo, mouse; details: for number of mice showing hemorrhage spots / number of mice showing skin wrinkles: oral 100 mg/kg; for PASI reflecting skin flair: distilled water 0.7±0.6
Description: as §1
The psoriasis area severity index (Psoriasis Area Severity Index, PASI) was given from the point 1 to point 4, based on which the recovery effect on the ear thickness was evaluated.
Then, the psoriasis area severity index (Psoriasis Area Severity Index, PASI) was calculated, based on which the recovery effect on keratosis was evaluated.
The psoriasis area severity index obtained in Examples <3-2> and <3-4> was accumulated to compare the psoriasis area severity index for ear thickness, keratosis and skin flair of the mouse groups respectively treated with cedrol, cedryl acetate, and alpha-cedrene via oral-administration.
The psoriasis induced mice orally administered with cedrol, cedryl acetate, and alpha-cedrene of Example <3-1> were observed by the naked eye, and the number of mice showing the recovery of hemorrhage spots was counted.
The psoriasis induced mice orally administered with cedrol, cedryl acetate, and alpha-cedrene of Example <3-1> were observed by the naked eye, and the number of mice showing the recovery of skin wrinkles was counted.

[4] = Weight changes in psoriasis induced mice during oral administration; format: in vivo, mouse; details: oral 100 mg/kg once a day during IMQ application, for 7 days; IMQ alone reduced by 0.48 g
Description: as §2
The mice prepared above were divided into the distilled water treated group (IMQ), the cedrol treated group (C), the cedryl acetate treated group (CA), and the alpha-cedrene treated group (CE). […] The day when distilled water or the compound administration started was recorded as day 0 and the administration was performed once a day for a week, during which photo-recording was performed every day (FIGS. 2A˜2D). […]
To compare the weight changes in the psoriasis induced mice according to the oral administration of cedrol, cedryl acetate, and alpha-cedrene of Example <2-1>, the weight of each mouse was measured at the same time every day for a week.

[5] = day 7, 8 mice/group, IMQ alone 3 mice
[6] = day 7, 8 mice/group, IMQ alone 5 mice
[7] = oral 100 mg/kg once a day, day 15
[8] = day 16, distilled water 1 mouse
[9] = day 16, distilled water one mouse
[10] = oral 100 mg/kg once a day, day 16

Row | Structure (SMILES) | cumulative psoriasis area severity index (ear thickness, keratosis, skin flair), in words (psoriasis induced mice [2]) | number of mice showing hemorrhage spots (psoriasis induced mice [2]; day 5, 8 mice/group) | number of mice showing skin wrinkles (psoriasis induced mice [2]; day 5, 8 mice/group) | number of mice showing skin wrinkles (psoriasis induced mice [2]; [5]) | number of mice showing hemorrhage spots (psoriasis induced mice [2]; [6]) | suppression of the expression of IL-17A (in words) (human IL-17A expression) | number of mice showing hemorrhage spots (psoriasis induced mice [3]; [8]) | number of mice showing skin wrinkles (psoriasis induced mice [3]; [9]) | number of mice showing hair regrowth (psoriasis induced mice [1]; day 16, distilled water 5 mice) | PASI reflecting skin flair (psoriasis induced mice [3]; [10]) | other results
1 | CC(=O)O[C@]1(C)CC[C@@]23C[C@@H]1C(C)(C)[C@@H]2CC[C@H]3C [cedryl acetate, Cedryl acetate] | strongest reduction effect | one mouse | one mouse | one mouse | one mouse | dose-dependently | no mouse | no mouse | – | – | number of mice showing hair regrowth (psoriasis induced mice [1]; day 14, distilled water one mouse): one mouse; number of mice showing skin pain (psoriasis induced mice [2]; day 6, 8 mice/group): one mouse; number of mice showing skin pain (psoriasis induced mice [2]; [6]): no mice; PASI reflecting the ear thickness (psoriasis induced mice [3]; [7]): recovered to normal
2 | C[C@@H]1CC[C@H]2C(C)(C)[C@H]3C[C@@]12CC[C@@]3(C)O [cedrol, Cedrol] | – | – | one mouse | – | – | dose-dependently | – | – | all the mice | disappeared | weight change (increase) [4]: 0.025 g; number of mice showing hemorrhage spots (psoriasis induced mice [2]; day 4, 8 mice/group): one mouse; number of mice showing skin pain (psoriasis induced mice [2]; day 4, 8 mice/group): one mouse; number of mice showing skin pain (psoriasis induced mice [2]; day 5, 8 mice/group): no mice; cumulative psoriasis area severity index (ear thickness, keratosis, skin flair), recovery in words (psoriasis induced mice [3]; oral 100 mg/kg once a day, FIG. 17): strongest recovery effect; PASI reflecting keratosis (psoriasis induced mice [3]; [7]): recovered to normal; number of mice showing skin wrinkles (psoriasis induced mice [3]; after day 15): no mouse; number of mice showing hemorrhage spots (psoriasis induced mice [3]; day 12): no mouse
3 | CC1=CC[C@@]23C[C@@H]1C(C)(C)[C@@H]2CC[C@H]3C [alpha-cedrene, Alpha-cedrene] | strongest reduction effect | two mice | – | one mouse | one mouse | dose-dependently | no mouse | no mouse | all the mice | disappeared | number of mice showing hair regrowth (psoriasis induced mice [1]; day 13): one mouse; number of mice showing skin wrinkles (psoriasis induced mice [2]; day 6, 8 mice/group): one mouse; number of mice showing skin pain (psoriasis induced mice [2]; during the 7 day observation period): no mice
